Reference: patent US20250369032A1 (priority 2023, published 2025)
Several values for one entry are separate records, joined by “and”; a condition that tells them apart may be missing. Equal values may be shown once. Read-outs that look alike come from different tables or passages of the source.

How the values were obtained:
skin = details: cited from earlier work
alkaline phosphatase [1] = target: T1, alkaline phosphatase (Bos taurus, UniProt P19111); assay type: biochemical; design: purchased Sigma Aldrich, St. Louis, MO P0114 (original source); P7640 (second source, 'new AP' condition only); details: for A1-Results R1 / A1-Results R3 / OD405 readings (FIG. 11B) / A1-Results AVG: 1:100; for A1-Results R1 / A1-Results R3 / A1-Results AVG: 20 μL into 180 μL, 4 hours RT, PNPP 60 min, 405 nm; for A1-Results R1 / A1-Results R3: 0.5 mL microcentrifuge tubes; for OD405 readings (FIG. 11B): 4 mL glass vials, 30 μL into 300 μL, 4 hours room temperature, 3 mL PNPP 1 hour; for A1-Results AVG: average of R1-R3; for prediction based on OD405 values (FIG. 6B): original alkaline phosphatase 1:1; for prediction based on OD405 values (FIG. 6B) / OD405 readings (FIG. 6D): 18 hours room temperature; for OD405 readings (FIG. 6D): original alkaline phosphatase 1:100 (100 units), 100 μL into 1 mL, PNPP 1 hour
T1 sequence (P19111 20-506): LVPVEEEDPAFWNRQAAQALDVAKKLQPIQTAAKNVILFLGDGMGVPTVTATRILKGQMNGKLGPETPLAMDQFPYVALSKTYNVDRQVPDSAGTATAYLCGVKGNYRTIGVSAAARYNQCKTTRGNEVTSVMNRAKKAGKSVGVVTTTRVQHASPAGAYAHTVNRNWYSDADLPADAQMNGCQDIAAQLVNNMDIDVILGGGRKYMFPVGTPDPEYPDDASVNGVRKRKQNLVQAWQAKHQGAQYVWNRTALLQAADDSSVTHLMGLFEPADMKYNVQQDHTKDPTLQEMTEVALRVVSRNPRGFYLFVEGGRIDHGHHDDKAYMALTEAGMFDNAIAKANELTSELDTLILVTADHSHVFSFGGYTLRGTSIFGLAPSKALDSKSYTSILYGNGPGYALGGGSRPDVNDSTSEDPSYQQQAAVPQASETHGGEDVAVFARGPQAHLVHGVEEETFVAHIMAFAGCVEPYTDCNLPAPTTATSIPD

alkaline phosphatase [2] = target: T1, alkaline phosphatase; details: for OD405 readings (FIG. 11D): 4 mL glass vials, 30 μL into 300 μL, 1:100, 4 hours room temperature, 3 mL PNPP 1 hour
Description: Two different dosing concentrations were evaluated, 10 μL of test chemical added to 90 μL of alkaline phosphatase reaction reagent and 50 μL of test chemical added to 50 μL of alkaline phosphatase reaction reagent; all aliquoted in 96-well plates.
• 1. Alkaline phosphatase reaction reagent (fresh, 1:100) • a. Take 4 mL of AP (1:10) stock solution, add to 36 mL PBS. Vortex mix and then invert to mix 10 times • 2. Prepare alkaline phosphatase reaction reagent for every condition • a. 200 μL AP (1:10) in 1.8 mL PBS • b. […] 200 μL AP (1:10) in 1.8 mL Acetone • 3. Prepare 96-well plates for dosing • 4. Prepare 96-well plates for PNPP reading (3 wells for each test chemical) • a. Aliquot with 200 μL PNPP
• 1. Set 1 • a. 10 μL chemical added to 90 μL AP reaction reagent • 2. Set 2 • a. 50 μL chemical added to 50 μL AP reaction reagent • 3. Incubate for 3 hours • a. To the prepared 96-well plate with 200 μL PNPP aliquoted, add 20 μL • b. […] To the prepared 96-well plate with 200 μL PNPP aliquoted, add 20 μL • b.
In our next study, we focused on ethanol and buffered saline (potassium chloride, potassium phosphate monobasic, sodium chloride, sodium phosphate dibasic) as our solvents.
• 1. Alkaline phosphatase reaction reagent • a. 1:100 • i. PBS: Take 400 μL of AP (1:10) stock solution, add to 3.6 mL PBS. Vortex mix and then invert to mix 10 times • ii. […] Vortex mix and then invert to mix 10 times • b. 1:1000 • i. PBS: Take 400 μL of AP (1:100) stock solution, add to 3.6 mL PBS. Vortex mix and then invert to mix 10 times • ii. […] Vortex mix and then invert to mix 10 times • 2. Prepare 0.5 mL microcentrifuge tubes for dosing • a. One set for room temperature, one set for 37° C. • 3. Prepare 96-well plates for PNPP reading (3 wells for each test chemical) • a. Aliquot with 200 μL PNPP
• 1. In each microcentrifuge tube for each condition, add 180 μL of the corresponding AP reaction reagent • 2. Add 20 μL of the test chemical to each microcentrifuge tube • 3. Incubate for 4 hours (one set at room temperature; one set at 37° C.) • 4. To prepared 96-well plates with 200 μL PNPP aliquoted, add 20 μL of each microcentrifuge tube to the corresponding well • 5.

alkaline phosphatase [3] = target: T1, alkaline phosphatase; assay: Solvent screen, visual colour change in PNPP; details: 200 μL of the solvent into 2 mL of PNPP; 1-hour
Description: The results were not quantified with the spectrophotometer but the color change was visually observed. […] Two different dosing concentrations were evaluated, 10 μL of test chemical added to 90 μL of alkaline phosphatase reaction reagent and 50 μL of test chemical added to 50 μL of alkaline phosphatase reaction reagent; all aliquoted in 96-well plates.

[4] = skin, chemical lists of the protocols

| SMILES | A1-Results R1 (alkaline phosphatase [1]) | A1-Results R3 (alkaline phosphatase [1]) | A1-Results AVG (alkaline phosphatase [1]) | color change visually observed (alkaline phosphatase [3]) | further results |
| --- | --- | --- | --- | --- | --- |
| CC(C)N(C)C [Dimethylisopropylamine] | 3.423 | 3.485 | 3.458 |  | in vivo GHS (skin; [4]): Cat. 1B/1C; OD405 readings (FIG. 11B) (alkaline phosphatase [1]): 3.354 and 3.466 and 3.502; prediction based on OD405 values (FIG. 6B) (alkaline phosphatase [1]): incorrectly predicted; OD405 readings (FIG. 6D) (alkaline phosphatase [1]): 3.466 and 3.502; OD405 readings (FIG. 11D) (alkaline phosphatase [2]): 2.926 and 2.922 and 2.852 |
| CCCCCCCCC=O [Nonyl aldehyde] | 3.393 | 3.050 | 3.296 |  | in vivo GHS (skin; [4]): Cat. 2 (Category 2 (irritation; mean score of ≥2.3 and ≤4.0 for erythema/eschar or for oedema in at least 2 of 3 tested animals at 24, 48, and 72 hours or inflammation that persists to the end of 14 days)); OD405 reading (FIG. 7A) (alkaline phosphatase [2]): 1.589; OD405 reading (FIG. 7B) (alkaline phosphatase [2]): 3.078 |
| CCCCCCCC(=O)O [Octanoic Acid] | 0.741 | 0.860 | 0.797 |  | in vivo GHS (skin; rabbit, in vivo): Cat. 1B/1C; OD405 readings (FIG. 11B) (alkaline phosphatase [1]): 1.427 and 1.415 and 1.416; prediction based on OD405 values (FIG. 6B) (alkaline phosphatase [1]): incorrectly predicted; OD405 readings (FIG. 6D) (alkaline phosphatase [1]): 3.462 and 3.491 and 3.333; OD405 readings (FIG. 11D) (alkaline phosphatase [2]): 3.283 and 3.408 and 3.220 |
| CC(C)=O [acetone] |  |  |  | brightest yellow intensity |  |
| C[S+](C)[O-] [dimethyl sulfoxide] |  |  |  | no response (clear) |  |
| CCO [ethanol] |  |  |  | brightest yellow intensity |  |
| CO [methanol] |  |  |  | lesser yellow intensity |  |
